# Experimental data reported in patent publication US11129805B2, “Dual ACE C-domain/NEP inhibitors” (ANGIODESIGN (UK) LIMITED, priority 2016, dated 2021).
# Read-outs that look alike come from different tables or passages of the source.
# Experiments:
# [1] = tested on: hypertensive animal (the high-renin mouse model); conditions: in vivo; cited from earlier work
# [2] = tested on: 10% human plasma supplemented with rhNEP (ACE and NEP activity); assay: Metabolism of a bradykinin 1-9 spike in human plasma (LC-MS/MS); assay type: biochemical; conditions: for initial bradykinin 1-9 spike remaining/recovered following the incubation period: 50 ng/ml BK 1-9 spike, 10% human plasma + rhNEP 200 pg/ml, 37° C.
# Procedure: All samples were spiked with bradykinin 1-9 (BK1-9) at a concentration of 50 ng/ml followed by an incubation period at 37° C. Recombinant human neutral endopeptidase (rhNEP) was added to all samples at a concentration of 200 pg/ml.
# The concentrations of BK 1-9 are relative to the control that was plasma spiked with BK 1-9 following the incubation period (100% spike control).
# Effects on Bradykinin Peptides. The metabolism of a spike of bradykinin 1-9 (50 ng/ml) in 10% human plasma supplemented with 200 pg/ml rhNEP (R&D) in vitro, followed by LC-MS/MS-based quantification of the bradykinin metabolites bradykinin 1-9, 1-8, 1-7, 1-5, and 2-9 was examined. Briefly, samples where stabilized and spiked with 200 pg/ml of stable-isotope-labelled internal standards for bradykinin 1-9, 1-8, 1-7, 1-5, and 2-9. Following C18-based solid-phase-extraction, samples were subjected to LC-MS/MS analysis using a reversed-phase analytical column (Acquity UPLC® C18, Waters) operating in line with a XEVO TQ-S triple quadrupole mass spectrometer (Waters) in MRM mode.
# [3] = cited from earlier work; for angioedema frequency: 5,770 patients with heart failure
# [4] = patients with hypertension, cited from earlier work
# aminopeptidase P = conditions: cited from earlier work
# [5] = 573 patients with heart failure; cited from earlier work
# [6] = cited from earlier work
# [7] = tested on: human plasma supplemented with recombinant human NEP (ACE and NEP activity); assay: RAS equilibrium analysis of angiotensin peptides in human plasma ex vivo (LC-MS/MS); conditions: human plasma + rhNEP 200 pg/ml
# Procedure: Recombinant human neutral endopeptidase (rhNEP) was added to all samples at a concentration of 200 pg/ml.
# Equilibrium angiotensin peptide levels were measured in plasma samples after incubating Li-Heparin samples supplemented with recombinant human NEP (rhNEP) (R&D, 200 pg/ml) at controlled pH (7.4) for a period of 30 min at 37° C. in the presence and absence of indicated compounds and enzymes. Following equilibration, samples were stabilized and spiked with stable-isotope-labelled internal standards for each angiotensin metabolite, Ang I (Ang 1-10), Ang II (Ang 1-8), Ang 1-7, Ang 1-5, Ang 2-8, Ang 3-8, Ang 2-10, Ang 2-7, Ang 1-9, and Ang 3-7, at a concentration of 200 pg/ml. Following C18-based solid-phase-extraction, samples were subjected to LC-MS/MS analysis using a reversed-phase analytical column (Acquity UPLC® C18, Waters) operating in line with a XEVO TQ-S triple quadrupole mass spectrometer (Waters) in MRM mode.
# ACE C-domain = ACE C-domain (Homo sapiens, UniProt P12821); conditions: cited from earlier work
# Sequence of ACE C-domain (P12821 643-1222 limits assumed): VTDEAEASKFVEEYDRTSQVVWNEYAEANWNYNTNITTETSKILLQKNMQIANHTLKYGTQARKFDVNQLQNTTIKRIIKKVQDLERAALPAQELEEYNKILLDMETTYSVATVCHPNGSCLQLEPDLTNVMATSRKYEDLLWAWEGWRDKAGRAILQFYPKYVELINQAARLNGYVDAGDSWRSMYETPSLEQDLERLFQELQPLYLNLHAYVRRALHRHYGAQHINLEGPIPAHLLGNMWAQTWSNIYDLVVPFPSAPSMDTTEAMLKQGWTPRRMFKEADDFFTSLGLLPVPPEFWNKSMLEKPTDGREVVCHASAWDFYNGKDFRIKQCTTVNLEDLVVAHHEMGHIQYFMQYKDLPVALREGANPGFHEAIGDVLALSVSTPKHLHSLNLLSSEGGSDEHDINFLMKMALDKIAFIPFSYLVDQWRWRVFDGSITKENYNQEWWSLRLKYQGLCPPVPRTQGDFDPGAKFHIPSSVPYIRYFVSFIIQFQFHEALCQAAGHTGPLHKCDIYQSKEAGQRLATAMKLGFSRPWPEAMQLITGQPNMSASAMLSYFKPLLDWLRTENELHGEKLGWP
structure (smiles),measurement,setting,value
NCCCC[C@H](N[C@@H](CCc1ccccc1)C(=O)O)C(=O)N1CCC[C@H]1C(=O)O [lisinopril],plasma BK levels,[1],substantial increases in plasma BK levels
same,initial bradykinin 1-9 spike remaining/recovered following the incubation period,[2],57-70%
O=C(N[C@H]1CCS[C@H]2CCC[C@@H](C(=O)O)N2C1=O)[C@@H](S)Cc1ccccc1 [omapatrilat],angioedema frequency,[3],0.8%
same,primary endpoint (all-cause mortality or hospitalization for heart failure),[3]; comparison with enalapril,failed to show superiority
same,reduction in arterial pressure,[4]; versus lisinopril,greater reductions in arterial pressure
same,excretion of ANP,[4],increased the excretion of ANP
same,inhibition of aminopeptidase P,aminopeptidase P,inhibits
same,benefit versus lisinopril,[5],trend toward greater benefit
same,incidence of angioedema,"[6]; 25,302 hypertensive subjects",2.17%
same,incidence of angioedema,[6]; African American patients,5.53%
same,blood pressure reduction,[6]; comparison with enalapril,superior to enalapril in reducing blood pressure
same,inhibition of equilibrium Ang 1-8 levels (Ang II),"[7]; pH 7.4, 30 min at 37° C.",93.1%
same,levels of Ang 1-7,[7]; sentence follows the rhACE2 discussion,undetectable
same,initial bradykinin 1-9 spike remaining/recovered following the incubation period,[2],74-85%
same,metabolism of bradykinin,[2]; versus solvent control plasma,decreased metabolism of bradykinin
CCOC(=O)[C@H](CCc1ccccc1)N[C@@H](C)C(=O)N1CCC[C@H]1C(=O)O [enalapril],angioedema frequency,[3],0.5%
O=C(N[C@@H](Cc1ccccc1)P(=O)(O)C1CCCC1C(=O)N[C@@H](Cc1c[nH]c2ccccc12)C(=O)O)OCc1ccccc1 (some centres unmarked) [RXP A380],C-domain selectivity,ACE C-domain,"~3,000 fold"
NCCCC[C@H](N[C@@H](CCc1ccccc1)C(=O)O)C(=O)N[C@@H](Cc1c[nH]c2ccccc12)C(=O)O [Lis-Trp],Ang II formation,[1],suppression of Ang Il formation
same,blood pressure,[1],reduction in blood pressure equivalent to that achieved with the conventional ACE inhibitor lisinopril
same,plasma BK levels,[1],leaving BK levels unchanged
